Test results from patent US10597388B2, “Pyridazinone herbicides” (FMC CORPORATION, priority 2014, dated 2020).

Legend:
Type in all cases: in vivo
[1] = tested on: blackgrass (Alopecurus myosuroides); experiment: Test C greenhouse herbicide test, pre- and postemergence
How it was run: (§1)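 Pre- and postemergence greenhouse screen; values are visual control ratings, 0 meaning no effect and 100 complete kill, assigned relative to untreated plants after 13 to 15 d.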

corn (Zea mays) = experiment: as above
How it was run: as §1

[2] = tested on: crabgrass, large (large crabgrass, Digitaria sanguinalis); experiment: as above
How it was run: as §1

[3] = tested on: foxtail, giant (giant foxtail, Setaria faberii); experiment: as above
How it was run: as §1

[4] = tested on: johnsongrass (Sorghum halepense); experiment: as above
How it was run: as §1

[5] = tested on: lambsquarters (Chenopodium album); experiment: as above
How it was run: as §1

[6] = tested on: morningglory (Ipomoea coccinea); experiment: as above
How it was run: as §1

[7] = tested on: oilseed rape (Brassica napus); experiment: as above
How it was run: as §1

[8] = tested on: pigweed (Amaranthus retroflexus); experiment: as above
How it was run: as §1

[9] = tested on: ragweed (common ragweed, Ambrosia elatior); experiment: as above
How it was run: as §1

[10] = tested on: ryegrass, Italian (Italian ryegrass, Lolium multiflorum); experiment: as above
How it was run: as §1

soybean (Glycine max) = experiment: as above
How it was run: as §1

[11] = tested on: velvetleaf (Abutilon theophrasti); experiment: as above
How it was run: as §1

[12] = tested on: waterhemp (common waterhemp, Amaranthus rudis); experiment: as above
How it was run: as §1

kochia (Kochia scoparia) = experiment: Test C greenhouse herbicide test, postemergence
How it was run: (§2)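 Ratings are visual scores from 0 (no effect) to 100 (complete control), made against controls 13–15 d after treatment. Postemergence sprays were applied in the greenhouse to plants 2–18 cm tall (1- to 4-leaf stage) in peat-moss/vermiculite potting medium.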

[13] = tested on: oat, wild (wild oat, Avena fatua); experiment: Test C greenhouse herbicide test, postemergence
How it was run: as §2

[14] = Postemergence, 31 g ai/ha, scale 0 to 100 (0 no effect, 100 complete control)
[15] = Postemergence, 62 g ai/ha, 0 to 100 scale (0 no effect, 100 complete control)
[16] = Postemergence, 250 g ai/ha, scale 0 to 100, 0 no effect, 100 complete control, 13 to 15 d
[17] = Preemergence, 31 g ai/ha, scale 0 to 100, 0 is no effect, 100 is complete control
[18] = Preemergence, 62 g ai/ha, scale 0 to 100, 0 is no effect, 100 is complete control
[19] = Preemergence, 125 g ai/ha, scale 0 to 100, 0 is no effect, 100 is complete control
[20] = Preemergence, 250 g ai/ha, scale 0 to 100 (0 no effect, 100 complete control)
[21] = postemergence, 125 g ai/ha, scale 0 to 100, 0 no effect, 100 complete control
[22] = Postemergence, 16 g ai/ha, scale 0 to 100 (0 no effect, 100 complete control)

COc1nn(C)c(=O)c(-c2c(C)ccc3ccccc23)c1OC(C)=O [Compound 138]
Plant response rating, Blackgrass [1, 14]: 5
Blackgrass plant response rating [1, 15]: 5
Plant response rating, Blackgrass [1, 16]: 80
Plant response rating, Blackgrass [1, 17]: 45
Plant response rating, Blackgrass [1, 18]: 55
Plant response rating, Blackgrass [1, 19]: 40
Blackgrass plant response rating [1, 20]: 90
Blackgrass plant response rating [1, 21]: 50
Plant response rating, Corn (corn (Zea mays); [14]): 0
Corn plant response rating (corn (Zea mays); [15]): 0
Plant response rating, Corn (corn (Zea mays); [16]): 15
Plant response rating, Corn (corn (Zea mays); [17]): 5
Plant response rating, Corn (corn (Zea mays); [18]): 5
Plant response rating, Corn (corn (Zea mays); [19]): 5
Corn plant response rating (corn (Zea mays); [20]): 15
Corn plant response rating (corn (Zea mays); [21]): 15
Plant response rating, Crabgrass, Large [2, 14]: 15
Crabgrass, Large plant response rating [2, 15]: 20
Plant response rating, Crabgrass, Large [2, 16]: 25
Plant response rating, Crabgrass, Large [2, 17]: 0
Plant response rating, Crabgrass, Large [2, 18]: 40
Plant response rating, Crabgrass, Large [2, 19]: 70
Crabgrass, Large plant response rating [2, 20]: 80
Crabgrass, Large plant response rating [2, 21]: 20
Plant response rating, Foxtail, Giant [3, 14]: 35
Foxtail, Giant plant response rating [3, 15]: 60
Plant response rating, Foxtail, Giant [3, 16]: 80
Plant response rating, Foxtail, Giant [3, 17]: 80
Plant response rating, Foxtail, Giant [3, 18]: 85
Plant response rating, Foxtail, Giant [3, 19]: 100
Foxtail, Giant plant response rating [3, 20]: 100
Foxtail, Giant plant response rating [3, 21]: 65
Plant response rating, Johnsongrass [4, 14]: 10
Johnsongrass plant response rating [4, 15]: 10
Plant response rating, Johnsongrass [4, 16]: 20
Plant response rating, Johnsongrass [4, 17]: 10
Plant response rating, Johnsongrass [4, 18]: 15
Plant response rating, Johnsongrass [4, 19]: 30
Johnsongrass plant response rating [4, 20]: 20
Johnsongrass plant response rating [4, 21]: 20
Plant response rating, Lambsquarters [5, 14]: 90
Lambsquarters plant response rating [5, 15]: 90
Plant response rating, Lambsquarters [5, 16]: 98
Plant response rating, Lambsquarters [5, 17]: 95
Plant response rating, Lambsquarters [5, 18]: 95
Plant response rating, Lambsquarters [5, 19]: 100
Lambsquarters plant response rating [5, 20]: 100
Lambsquarters plant response rating [5, 21]: 95
Plant response rating, Morningglory [6, 14]: 98
Morningglory plant response rating [6, 15]: 100
Plant response rating, Morningglory [6, 16]: 100
Plant response rating, Morningglory [6, 17]: 80
Plant response rating, Morningglory [6, 18]: 90
Plant response rating, Morningglory [6, 19]: 98
Morningglory plant response rating [6, 20]: 98
Morningglory plant response rating [6, 21]: 98
Plant response rating, Oilseed Rape [7, 14]: 95
Oilseed Rape plant response rating [7, 15]: 98
Plant response rating, Oilseed Rape [7, 16]: 98
Plant response rating, Oilseed Rape [7, 17]: 85
Plant response rating, Oilseed Rape [7, 18]: 90
Plant response rating, Oilseed Rape [7, 19]: 90
Oilseed Rape plant response rating [7, 20]: 100
Oilseed Rape plant response rating [7, 21]: 98
Plant response rating, Pigweed [8, 14]: 80
Pigweed plant response rating [8, 15]: 85
Plant response rating, Pigweed [8, 16]: 98
Plant response rating, Pigweed [8, 17]: 100
Plant response rating, Pigweed [8, 18]: 98
Plant response rating, Pigweed [8, 19]: 100
Pigweed plant response rating [8, 20]: 100
Pigweed plant response rating [8, 21]: 90
Plant response rating, Ragweed [9, 14]: 0
Ragweed plant response rating [9, 15]: 0
Plant response rating, Ragweed [9, 16]: 5
Plant response rating, Ragweed [9, 17]: 95
Plant response rating, Ragweed [9, 18]: 100
Plant response rating, Ragweed [9, 19]: 98
Ragweed plant response rating [9, 20]: 95
Ragweed plant response rating [9, 21]: 5
Plant response rating, Ryegrass, Italian [10, 14]: 5
Ryegrass, Italian plant response rating [10, 15]: 5
Plant response rating, Ryegrass, Italian [10, 16]: 70
Plant response rating, Ryegrass, Italian [10, 17]: 55
Plant response rating, Ryegrass, Italian [10, 18]: 90
Plant response rating, Ryegrass, Italian [10, 19]: 90
Ryegrass, Italian plant response rating [10, 20]: 95
Ryegrass, Italian plant response rating [10, 21]: 10
Plant response rating, Soybean (soybean (Glycine max); [14]): 10
Soybean plant response rating (soybean (Glycine max); [15]): 10
Plant response rating, Soybean (soybean (Glycine max); [16]): 25
Plant response rating, Soybean (soybean (Glycine max); [17]): 0
Plant response rating, Soybean (soybean (Glycine max); [18]): 0
Plant response rating, Soybean (soybean (Glycine max); [19]): 20
Soybean plant response rating (soybean (Glycine max); [20]): 15
Soybean plant response rating (soybean (Glycine max); [21]): 10
Plant response rating, Velvetleaf [11, 14]: 85
Velvetleaf plant response rating [11, 15]: 90
Plant response rating, Velvetleaf [11, 16]: 98
Plant response rating, Velvetleaf [11, 17]: 85
Plant response rating, Velvetleaf [11, 18]: 90
Plant response rating, Velvetleaf [11, 19]: 98
Velvetleaf plant response rating [11, 20]: 100
Velvetleaf plant response rating [11, 21]: 95
Plant response rating, Waterhemp [12, 14]: 90
Waterhemp plant response rating [12, 15]: 95
Plant response rating, Waterhemp [12, 16]: 100
Plant response rating, Waterhemp [12, 17]: 95
Plant response rating, Waterhemp [12, 18]: 100
Plant response rating, Waterhemp [12, 19]: 98
Waterhemp plant response rating [12, 20]: 100
Waterhemp plant response rating [12, 21]: 98
Plant response rating, Kochia (kochia (Kochia scoparia); [14]): 90
Kochia plant response rating (kochia (Kochia scoparia); [15]): 95
Plant response rating, Kochia (kochia (Kochia scoparia); [16]): 100
Kochia plant response rating (kochia (Kochia scoparia); [21]): 100
Plant response rating, Oat, Wild [13, 14]: 50
Oat, Wild plant response rating [13, 15]: 80
Plant response rating, Oat, Wild [13, 16]: 90
Oat, Wild plant response rating [13, 21]: 80

COC(=O)Oc1cnn(C)c(=O)c1-c1c(C)ccc2ccccc12 [Compound 143]
Plant response rating, Blackgrass [1, 22]: 0
Plant response rating, Blackgrass [1, 14]: 5
Blackgrass plant response rating [1, 15]: 5
Blackgrass plant response rating [1, 21]: 20
Plant response rating, Corn (corn (Zea mays); [22]): 0
Plant response rating, Corn (corn (Zea mays); [14]): 5
Corn plant response rating (corn (Zea mays); [15]): 0
Corn plant response rating (corn (Zea mays); [21]): 5
Plant response rating, Crabgrass, Large [2, 22]: 5
Plant response rating, Crabgrass, Large [2, 14]: 10
Crabgrass, Large plant response rating [2, 15]: 10
Crabgrass, Large plant response rating [2, 21]: 30
Plant response rating, Foxtail, Giant [3, 22]: 5
Plant response rating, Foxtail, Giant [3, 14]: 5
Foxtail, Giant plant response rating [3, 15]: 5
Foxtail, Giant plant response rating [3, 21]: 20
Plant response rating, Johnsongrass [4, 22]: 10
Plant response rating, Johnsongrass [4, 14]: 10
Johnsongrass plant response rating [4, 15]: 25
Johnsongrass plant response rating [4, 21]: 20
Plant response rating, Lambsquarters [5, 22]: 10
Plant response rating, Lambsquarters [5, 14]: 50
Lambsquarters plant response rating [5, 15]: 60
Lambsquarters plant response rating [5, 21]: 75
Plant response rating, Morningglory [6, 22]: 30
Plant response rating, Morningglory [6, 14]: 50
Morningglory plant response rating [6, 15]: 65
Morningglory plant response rating [6, 21]: 70
Plant response rating, Oilseed Rape [7, 22]: 60
Plant response rating, Oilseed Rape [7, 14]: 0
Oilseed Rape plant response rating [7, 15]: 0
Oilseed Rape plant response rating [7, 21]: 5
Plant response rating, Pigweed [8, 22]: 50
Plant response rating, Pigweed [8, 14]: 50
Pigweed plant response rating [8, 15]: 65
Pigweed plant response rating [8, 21]: 75
Plant response rating, Ragweed [9, 22]: 0
Plant response rating, Ragweed [9, 14]: 0
Ragweed plant response rating [9, 15]: 30
Ragweed plant response rating [9, 21]: 70
Plant response rating, Ryegrass, Italian [10, 22]: 45
Plant response rating, Ryegrass, Italian [10, 14]: 55
Ryegrass, Italian plant response rating [10, 15]: 60
Ryegrass, Italian plant response rating [10, 21]: 90
Plant response rating, Soybean (soybean (Glycine max); [22]): 0
Plant response rating, Soybean (soybean (Glycine max); [14]): 0
Soybean plant response rating (soybean (Glycine max); [15]): 15
Soybean plant response rating (soybean (Glycine max); [21]): 20
Plant response rating, Velvetleaf [11, 22]: 30
Plant response rating, Velvetleaf [11, 14]: 20
Velvetleaf plant response rating [11, 15]: 25
Velvetleaf plant response rating [11, 21]: 50
Plant response rating, Waterhemp [12, 22]: 25
Plant response rating, Waterhemp [12, 14]: 40
Waterhemp plant response rating [12, 15]: 55
Waterhemp plant response rating [12, 21]: 90
Plant response rating, Kochia (kochia (Kochia scoparia); [22]): 0
Plant response rating, Kochia (kochia (Kochia scoparia); [14]): 30
Kochia plant response rating (kochia (Kochia scoparia); [15]): 60
Kochia plant response rating (kochia (Kochia scoparia); [21]): 60
Plant response rating, Oat, Wild [13, 22]: 30
Plant response rating, Oat, Wild [13, 14]: 40
Oat, Wild plant response rating [13, 15]: 55
Oat, Wild plant response rating [13, 21]: 60
